According to patent US20230233569A1 (Revolution Medicines, Inc., priority 2020, published 2023):
pIC50: −log10 of the molar value.

Key:
Test in all cases: Disruption of BRAF RBD interaction with Ras (FRET / MOA assay, with Cyclophilin A)
Format in all cases: biochemical
[1] = molecular target: KRAS Q61H (Homo sapiens, UniProt P01116+P62937, Q61H); conditions: KRAS Q61H; read-out: KRAS Q61H FRET data IC50
Source text: (§1) Disruption of B-Raf Ras-Binding Domain (BRAF^RBD) Interaction with K-Ras by Compounds of the Invention (Also Called a FRET Assay or an MOA Assay)
(§2) Note—The following protocol describes a procedure for monitoring disruption of K-Ras G12C (GMP-PNP) binding to BRAF^RBD by a compound of the invention. This protocol may also be executed substituting other Ras proteins or nucleotides.
(§3) The purpose of this biochemical assay was to measure the ability of test compounds to facilitate ternary complex formation between a nucleotide-loaded K-Ras isoform and Cyclophilin A; the resulting ternary complex disrupts binding to a BRAF^RBD construct, inhibiting K-Ras signaling through a RAF effector. Data is reported as IC50 values.
(§4) In assay buffer containing 25 mM HEPES pH 7.3, 0.002% Tween20, 0.1% BSA, 100 mM NaCl and 5 mM MgCl2, tagless Cyclophilin A, His6-K-Ras-GMPPNP, and GST-BRAF^RBD were combined in a 384-well assay plate at final concentrations of 25 μM, 12.5 nM and 50 nM, respectively. Compound was present in plate wells as a 10-point 3-fold dilution series starting at a final concentration of 30 μM. After incubation at 25° C. for 3 hours, a mixture of Anti-His Eu-W1024 and anti-GST allophycocyanin was then added to assay sample wells at final concentrations of 10 nM and 50 nM, respectively, and the reaction incubated for an additional 1.5 hours. […] Compounds that facilitate disruption of a K-Ras:RAF complex were identified as those eliciting a decrease in the TR-FRET ratio relative to DMSO control wells.
as §3, with “BRAF^RBDD” for “BRAF^RBD”

[2] = molecular target: NRAS Q61K (Homo sapiens, UniProt P01111+P62937, Q61K); conditions: NRAS Q61K; read-out: NRAS Q61K FRET data IC50
Sequence of NRAS Q61K (P01111 whole entry Q61K): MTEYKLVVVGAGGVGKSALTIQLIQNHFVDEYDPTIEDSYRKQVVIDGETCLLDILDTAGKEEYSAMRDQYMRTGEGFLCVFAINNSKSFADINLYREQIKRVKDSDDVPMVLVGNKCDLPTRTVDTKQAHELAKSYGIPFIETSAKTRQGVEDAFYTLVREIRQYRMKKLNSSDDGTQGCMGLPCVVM
Sequence of NRAS Q61K (P62937 whole entry): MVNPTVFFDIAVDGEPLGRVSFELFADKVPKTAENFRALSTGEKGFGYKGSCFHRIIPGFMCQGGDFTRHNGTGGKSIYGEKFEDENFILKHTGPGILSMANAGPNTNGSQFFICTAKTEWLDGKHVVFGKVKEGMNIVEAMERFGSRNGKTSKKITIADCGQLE
Source text: as §1, §2, §3, §4
as §3, with “BRAF^RBDD” for “BRAF^RBD”

[3] = molecular target: KRAS G12V (Homo sapiens, UniProt P01116+P62937, G12V); conditions: KRAS G12V; read-out: KRAS G12V FRET data IC50
Sequence of KRAS G12V (P01116 1-169 isoform P01116-2 G12V limits assumed): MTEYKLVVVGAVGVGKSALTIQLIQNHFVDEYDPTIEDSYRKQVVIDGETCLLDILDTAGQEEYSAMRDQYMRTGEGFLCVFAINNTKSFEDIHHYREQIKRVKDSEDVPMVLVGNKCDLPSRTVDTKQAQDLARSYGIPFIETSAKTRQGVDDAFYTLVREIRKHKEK
Sequence of KRAS G12V (P62937 whole entry): as the sequence (P62937 whole entry) above
Procedure, shortened: (§5)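 Here, compound titrations (ten points, factor 3, from 30 μM final) act on nucleotide-bound K-Ras and Cyclophilin A, and ternary complex formation disrupts the RAF RBD interaction.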

[4] = molecular target: KRAS G12C (Homo sapiens, UniProt P01116+P62937, G12C); conditions: KRAS G12C; read-out: KRAS G12C FRET data IC50
Sequence of KRAS G12C (P01116 1-169 isoform P01116-2 G12C): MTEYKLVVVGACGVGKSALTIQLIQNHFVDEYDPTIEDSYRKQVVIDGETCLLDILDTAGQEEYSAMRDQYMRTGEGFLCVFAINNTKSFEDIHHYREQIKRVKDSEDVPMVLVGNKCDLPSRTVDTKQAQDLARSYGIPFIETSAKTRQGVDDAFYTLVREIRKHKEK
Sequence of KRAS G12C (P62937 whole entry): as the sequence (P62937 whole entry) above
Procedure, shortened: as §5

[5] = molecular target: KRAS G13D (Homo sapiens, UniProt P01116+P62937, G13D); conditions: KRAS G13D; read-out: KRAS G13D FRET data IC50
Sequence of KRAS G13D (P01116 1-169 isoform P01116-2 G13D limits assumed): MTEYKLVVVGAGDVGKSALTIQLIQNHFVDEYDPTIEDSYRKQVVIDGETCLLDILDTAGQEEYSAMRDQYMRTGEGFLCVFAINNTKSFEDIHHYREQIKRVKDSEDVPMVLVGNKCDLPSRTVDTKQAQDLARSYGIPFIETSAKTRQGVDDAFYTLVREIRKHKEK
Sequence of KRAS G13D (P62937 whole entry): as the sequence (P62937 whole entry) above
Procedure, shortened: as §5

[6] = molecular target: NRAS G12C (Homo sapiens, UniProt P01111+P62937, G12C); conditions: NRAS G12C; read-out: NRAS G12C FRET data IC50
Sequence of NRAS G12C (P01111 whole entry G12C): as the sequence (P01111 whole entry Q61K) above, with G12C, K61Q counted along it
Sequence of NRAS G12C (P62937 whole entry): as the sequence (P62937 whole entry) above

[7] = molecular target: KRAS G12D (Homo sapiens, UniProt P01116+P62937, G12D); conditions: read-out: KRAS G12D FRET data, IC50
Sequence of KRAS G12D (P01116 1-169 isoform P01116-2 G12D limits assumed): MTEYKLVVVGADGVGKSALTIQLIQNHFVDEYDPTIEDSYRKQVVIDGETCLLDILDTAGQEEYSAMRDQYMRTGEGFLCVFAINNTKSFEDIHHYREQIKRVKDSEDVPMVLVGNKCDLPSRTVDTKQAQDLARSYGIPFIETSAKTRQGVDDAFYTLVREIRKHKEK
Sequence of KRAS G12D (P62937 whole entry): as the sequence (P62937 whole entry) above
Procedure, shortened: as §5

[8] = molecular target: KRAS G12S (Homo sapiens, UniProt P01116+P62937, G12S); conditions: read-out: KRAS G12S FRET data, IC50
Sequence of KRAS G12S (P01116 1-169 isoform P01116-2 G12S limits assumed): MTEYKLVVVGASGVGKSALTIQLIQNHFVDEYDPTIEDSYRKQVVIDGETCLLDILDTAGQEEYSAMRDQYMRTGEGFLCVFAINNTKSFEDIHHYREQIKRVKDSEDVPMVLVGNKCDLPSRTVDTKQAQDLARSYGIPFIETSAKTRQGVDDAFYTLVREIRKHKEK
Sequence of KRAS G12S (P62937 whole entry): as the sequence (P62937 whole entry) above
Procedure, shortened: as §5

[9] = molecular target: KRAS G13C (Homo sapiens, UniProt P01116+P62937, G13C); conditions: KRAS G13C; read-out: KRAS G13C FRET data IC50
Sequence of KRAS G13C (P01116 1-169 isoform P01116-2 G13C): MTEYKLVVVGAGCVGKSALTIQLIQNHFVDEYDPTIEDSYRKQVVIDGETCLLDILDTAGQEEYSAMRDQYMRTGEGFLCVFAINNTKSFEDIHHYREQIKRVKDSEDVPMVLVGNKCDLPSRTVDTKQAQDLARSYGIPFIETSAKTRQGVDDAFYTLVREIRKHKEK
Sequence of KRAS G13C (P62937 whole entry): as the sequence (P62937 whole entry) above
Procedure, shortened: as §5

[10] = molecular target: KRAS WT (Homo sapiens, UniProt P01116+P62937); conditions: KRAS WT; read-out: KRAS WT FRET data IC50
Sequence of KRAS WT (P01116 1-169 isoform P01116-2 limits assumed): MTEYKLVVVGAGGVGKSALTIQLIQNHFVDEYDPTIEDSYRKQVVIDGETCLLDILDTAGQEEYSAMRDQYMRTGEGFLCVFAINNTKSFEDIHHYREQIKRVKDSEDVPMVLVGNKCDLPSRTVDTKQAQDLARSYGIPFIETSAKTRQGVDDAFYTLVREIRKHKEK
Sequence of KRAS WT (P62937 whole entry): as the sequence (P62937 whole entry) above
Procedure, shortened: as §5

[11] = molecular target: NRAS Q61R (Homo sapiens, UniProt P01111+P62937, Q61R); conditions: NRAS Q61R; read-out: NRAS Q61R FRET data IC50
Sequence of NRAS Q61R (P01111 whole entry Q61R): as the sequence (P01111 whole entry Q61K) above, with K61R counted along it
Sequence of NRAS Q61R (P62937 whole entry): as the sequence (P62937 whole entry) above
Source text: as §1, §2, §3, §4
as §3, with “BRAF^RBDD” for “BRAF^RBD”

Sequence of KRAS Q61H (P01116 1-169 isoform P01116-2 Q61H limits assumed): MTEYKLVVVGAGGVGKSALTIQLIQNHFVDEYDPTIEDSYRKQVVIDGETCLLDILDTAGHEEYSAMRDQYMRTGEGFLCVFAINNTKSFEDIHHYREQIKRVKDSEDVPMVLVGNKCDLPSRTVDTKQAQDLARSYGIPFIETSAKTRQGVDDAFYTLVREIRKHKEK
Sequence of KRAS Q61H (P62937 whole entry, the tested form may be a part): as the sequence (P62937 whole entry) above

pIC50 [1] | pIC50 [2] | pIC50 [3] | pIC50 [4] | pIC50 [5] | pIC50 [6] | pIC50 [7] | pIC50 [8] | pIC50 [9] | pIC50 [10] | pIC50 [11] | SMILES
7.00 to 8.00 | 7.00 to 8.00 |  |  |  |  |  |  |  |  |  | CCn1c(-c2cccnc2[C@H](C)OC)c2c3cc(ccc31)-c1csc(n1)C[C@H](NC(=O)[C@H](C(C)C)N(C)C(=O)N1CC3(CN(C)C3)C1)C(=O)N1CCC[C@H](N1)C(=O)OCC(C)(C)C2 (atropisomer, axis not shown) [Example A268]
6.00 to 7.00 |  |  | 6.00 to 7.00 | 5.00 to 6.00 | 6.00 to 7.00 |  |  |  |  |  | CCn1c(-c2cccnc2[C@H](C)OC)c2c3cc(ccc31)-c1cccc(c1)C[C@H](NC(=O)[C@H](C(C)C)N(C)C(=O)N1CCC13CN(C(=O)C#CC(C)(C)N(C)C)C3)C(=O)N1CCC[C@H](N1)C(=O)OCC(C)(C)C2 (atropisomer, axis not shown) [Example A717]
7.00 to 8.00 | 6.00 to 7.00 | 6.00 to 7.00 | 7.00 to 8.00 |  |  | 5.00 to 6.00 | 6.00 to 7.00 | 6.00 to 7.00 | 6.00 to 7.00 | 6.00 to 7.00 | C=CC(=O)N1CC[C@H](C(=O)N(C)[C@H](C(=O)N[C@H]2Cc3cc(O)cc(c3)-c3ccc4c(c3)c(c(-c3ccccc3[C@H](C)OC)n4CC)CC(C)(C)COC(=O)[C@@H]3CCCN(N3)C2=O)C(C)C)C1 [Example A022]
5.00 to 6.00 | 5.00 to 6.00 | 5.00 to 6.00 | 6.00 to 7.00 |  |  | < 5.00 | 5.00 to 6.00 | 5.00 to 6.00 | 5.00 to 6.00 | < 5.00 | C=CC(=O)N1CC[C@H](C(=O)N(C)[C@H](C(=O)N[C@H]2Cc3cc(O)cc(c3)-c3ccc4c(c3)c(c(-c3c(F)cccc3CCOC)n4CC)CC(C)(C)COC(=O)[C@@H]3CCCN(N3)C2=O)C(C)C)C1 [Example A025]
5.00 to 6.00 | < 5.00 | < 5.00 | 6.00 to 7.00 |  |  | < 5.00 | < 5.00 | < 5.00 | < 5.00 | < 5.00 | C=CC(=O)N1CC[C@H](C(=O)N(C)[C@H](C(=O)N[C@H]2Cc3cc(O)cc(c3)-c3ccc4c(c3)c(c(-c3ccccc3N3CCOCC3)n4CC)CC(C)(C)COC(=O)[C@@H]3CCCN(N3)C2=O)C(C)C)C1 [Example A026]
6.00 to 7.00 | 5.00 to 6.00 | 5.00 to 6.00 | 6.00 to 7.00 |  |  | < 5.00 | 5.00 to 6.00 | 5.00 to 6.00 | 5.00 to 6.00 | < 5.00 | C=CC(=O)N1CC[C@H](C(=O)N(C)[C@H](C(=O)N[C@H]2Cc3cc(O)cc(c3)-c3ccc4c(c3)c(c(-c3cccnc3)n4CC)CC(C)(C)COC(=O)[C@@H]3CCCN(N3)C2=O)C(C)C)C1 [Example A045]
6.00 to 7.00 |  |  |  |  |  |  |  | 6.00 to 7.00 |  | 5.00 to 6.00 | C=CC(=O)N1CC[C@H](C(=O)N(C)[C@H](C(=O)N[C@H]2Cc3cc(O)cc(c3)-c3ccc4c(c3)c(c(-c3cccnc3)n4C(C)(C)C#N)CC(C)(C)COC(=O)[C@@H]3CCCN(N3)C2=O)C(C)C)C1 [Example A074]
> 8.00 |  |  |  |  |  |  |  |  |  |  | CCn1c(-c2cccnc2[C@H](C)OC)c2c3cc(ccc31)-c1cc(O)cc(c1)C[C@H](NC(=O)[C@H](C(C)C)N(C)C(=O)[C@@H]1OCC[C@@H]1c1ccccc1)C(=O)N1CCC[C@H](N1)C(=O)OCC(C)(C)C2 [Example A415]

SMILES | pIC50 [1] | pIC50 [2] | pIC50 [3] | pIC50 [4] | pIC50 [5] | pIC50 [6] | pIC50 [7] | pIC50 [8] | pIC50 [9] | pIC50 [10] | pIC50 [11]
CCn1c(-c2cccnc2[C@H](C)OC)c2c3cc(ccc31)-c1csc(n1)C[C@H](NC(=O)[C@H](C(C)C)N(C)C(=O)[C@H]1[C@@H]3CNC[C@@H]31)C(=O)N1CCC[C@H](N1)C(=O)OCC(C)(C)C2 (atropisomer, axis not shown) [Example A448] | 5.00 to 6.00 |  | < 5.00 |  |  |  |  |  |  |  | 
CCn1c(-c2cccnc2[C@H](C)OC)c2c3nc(ccc31)-c1csc(n1)C[C@H](NC(=O)[C@H](C(C)C)N(C)C(=O)N1CC(OC)C1)C(=O)N1CCC[C@H](N1)C(=O)OCC(C)(C)C2 (atropisomer, axis not shown) [Example A613] | 5.00 to 6.00 |  |  |  |  |  |  |  |  |  | 
